Reference: ChEMBL document CHEMBL1201862, “PubChem BioAssay data set” (2004)
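Five compound concentrations were applied to cells in 96-well plates for 48 hours; endpoints were derived by simple linear interpolation of the resulting dose-response curve. The concentration for 50% growth inhibition is given as GI50.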 The source made the active and inactive calls. No stated cut-off is given here; in the data, active = GI50 up to about 1.1 µM and inactive = higher.

Legend:
Test in all cases: DTP human tumour cell line panel, 48 h
KM-20L2 = test system: KM-20L2
TK-10 = test system: TK-10
HCC 2998 = test system: HCC 2998
ACHN = test system: ACHN
LOX IMVI = test system: LOX IMVI
SK-MEL-2 = test system: SK-MEL-2
A549 = test system: A549
K562 = test system: K562
U-251 = test system: U-251
SF-539 = test system: SF-539
786-0 = test system: 786-0
CCRF-CEM = test system: CCRF-CEM
OVCAR-3 = test system: OVCAR-3
UO-31 = test system: UO-31
Hs-578T = test system: Hs-578T
NCI/ADR-RES = test system: NCI/ADR-RES
T47D = test system: T47D
MDA-MB-435 = test system: MDA-MB-435
NCI-H460 = test system: NCI-H460
MDA-N = test system: MDA-N

Row | SMILES | GI50 (KM-20L2) | GI50 (TK-10) | GI50 (HCC 2998) | GI50 (ACHN) | GI50 (LOX IMVI) | GI50 (SK-MEL-2) | GI50 (A549) | GI50 (K562) | GI50 (U-251) | GI50 (SF-539) | GI50 (786-0) | GI50 (CCRF-CEM) | GI50 (OVCAR-3) | GI50 (UO-31) | GI50 (Hs-578T) | GI50 (NCI/ADR-RES) | GI50 (T47D) | GI50 (MDA-MB-435) | GI50 (NCI-H460) | GI50 (MDA-N)
1 | COCC(OC)C(CC=C(C#N)C#N)OC (configuration not stated) | > 100 µM (inactive) | > 100 µM (inactive) | > 100 µM (inactive) | > 100 µM (inactive) | > 100 µM (inactive) | > 100 µM (inactive) | > 100 µM (inactive) | > 100 µM (inactive) | > 100 µM (inactive) | > 100 µM (inactive) | > 100 µM (inactive) | > 100 µM (inactive) | > 100 µM (inactive) | > 100 µM (inactive) |  |  |  |  |  | 
2 | Cc1nc2ccccc2c(=O)n1/N=C(\N=N\c1cc(Cl)ccc1Cl)c1ccccc1 | 0.412 µM (active) | > 93.5 µM (inactive) | 32.1 µM (inactive) | > 84.9 µM (inactive) | 40.6 µM (inactive) | 60.5 µM (inactive) | 71 µM (inactive) | > 100 µM (inactive) | 27.1 µM (inactive) | 46.5 µM (inactive) | 74.1 µM (inactive) | 48.6 µM (inactive) | 53.2 µM (inactive) | 22.9 µM (inactive) | 74 µM (inactive) | 26.6 µM (inactive) | > 100 µM (inactive) | 21.3 µM (inactive) | 45.8 µM (inactive) | 
3 | NC(=O)N1N=C2c3ccccc3OC[C@H]2[C@@H]1c1ccccc1 | 23.4 µM (inactive) | 52.4 µM (inactive) | 10.7 µM (inactive) | 5.68 µM (inactive) | 26.1 µM (inactive) | 27.6 µM (inactive) | 5.4 µM (inactive) | 14.4 µM (inactive) | 5.14 µM (inactive) | 3.92 µM (inactive) | 5.02 µM (inactive) | 13.4 µM (inactive) | 20.9 µM (inactive) | 42.4 µM (inactive) |  |  |  |  | 13.2 µM (inactive) | 
4 | CCOC(=O)C1(C(=O)OCC)OC(=O)NC2=C1CCCC2 | > 100 µM (inactive) | > 100 µM (inactive) | > 100 µM (inactive) | > 100 µM (inactive) | > 100 µM (inactive) | > 100 µM (inactive) | > 100 µM (inactive) | > 100 µM (inactive) | > 100 µM (inactive) | > 100 µM (inactive) | > 100 µM (inactive) | > 100 µM (inactive) | > 100 µM (inactive) | > 100 µM (inactive) |  |  |  |  | > 100 µM (inactive) | 
5 | COc1ccc2c(c1)CCc1c(-c3n[nH]c4c3CCc3cc(OC)ccc3-4)n[nH]c1-2 | 47.5 µM (inactive) | > 100 µM (inactive) | > 100 µM (inactive) | 29.9 µM (inactive) | 17.9 µM (inactive) | 43.9 µM (inactive) | 30.3 µM (inactive) | 8.89 µM (inactive) | 49.1 µM (inactive) | 24.1 µM (inactive) | 19 µM (inactive) | 26.1 µM (inactive) |  | 40.5 µM (inactive) |  |  |  |  | 39 µM (inactive) | 
6 | CC(=O)OC1=CC2(OC(C)=O)CC(C)(C)C1C1C(=O)C=CC(=O)C12 (configuration not stated) | > 100 µM (inactive) | > 100 µM (inactive) | > 58.3 µM (inactive) | 20.1 µM (inactive) | > 42.1 µM (inactive) | > 100 µM (inactive) | > 100 µM (inactive) | 97.1 µM (inactive) | > 66.2 µM (inactive) | > 47.1 µM (inactive) | > 50.7 µM (inactive) | > 100 µM (inactive) | > 66.7 µM (inactive) | > 70 µM (inactive) |  | 49.8 µM (inactive) | 49.4 µM (inactive) | 22.9 µM (inactive) | > 62.8 µM (inactive) | 31.1 µM (inactive)
7 | c1ccc2cc3c(cc2c1)OP1(Oc2cccc4cccnc24)(O3)Oc2cc3ccccc3cc2O1 | 3.39 µM (inactive) |  | 8.59 µM (inactive) |  | 3.72 µM (inactive) | 7.66 µM (inactive) | 5.9 µM (inactive) | 2.04 µM (inactive) | 6.85 µM (inactive) | 6.15 µM (inactive) |  | 0.984 µM (active) | 1.58 µM (inactive) | 5.01 µM (inactive) |  | 1.28 µM (inactive) |  |  | 2.52 µM (inactive) | 
8 | O=c1oc2cc(O)ccc2c2oc3cc(O)ccc3c12 [COUMESTROL] | 41 µM (inactive) |  | 53.6 µM (inactive) |  | 42.1 µM (inactive) | > 125 µM (inactive) | 43.1 µM (inactive) | 74 µM (inactive) | 33.3 µM (inactive) | 56.6 µM (inactive) |  | 8.81 µM (inactive) | 45.2 µM (inactive) | 48.3 µM (inactive) |  | 108 µM (inactive) |  |  | 38.6 µM (inactive) | 
